In patent US20150105252A1, “SUBSTITUTED PYRAZOLES AS HERBICIDES” (E I DU PONT DE NEMOURS AND COMPANY, priority 2013, published 2015):

Columns and labels:
[1] = test system: wheat; test: Test A postemergence; assay type: in vivo, Triticum aestivum
Summary of the method: (§1)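 Scoring was visual, on a scale where 100 means complete control and 0 means no effect, comparing treated with untreated plants around 10 days post-application. Compounds in surfactant-containing non-phytotoxic solvent were sprayed onto soil preemergence or onto one- to two-leaf seedlings (2–10 cm) postemergence.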

[2] = test system: corn; test: Test A postemergence; assay type: in vivo, Zea mays
Summary of the method: as §1

[3] = test system: crabgrass, large; test: Test A postemergence; assay type: in vivo, Digitaria sanguinalis
Summary of the method: as §1

[4] = test system: velvetleaf; test: Test A postemergence; assay type: in vivo, Abutilon theophrasti
Summary of the method: as §1

[5] = test system: foxtail, giant; test: Test A postemergence; assay type: in vivo, Setaria faberii
Summary of the method: as §1

[6] = test system: rice; test: Test B flood; assay type: in vivo, Oryza sativa; conditions: 250 g ai/ha, visual rating on 0 to 100 scale (0 no effect, 100 complete control), 13 to 15 days
Summary of the method: (§2)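 At two leaves, seedlings received the test compound via the paddy water, pots having been flooded 3 cm over the soil surface and kept so. Greenhouse-held for 13 to 15 days, then judged by eye against controls on a scale running 0 (no effect) to 100 (complete control).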

[7] = test system: pigweed; test: Test A preemergence; assay type: in vivo, Amaranthus retroflexus; conditions: preemergence; for Pigweed plant response rating (0 to 100 scale): 125 g ai/ha, visual injury approx. 10 days after treatment; for Pigweed plant response rating: 500 g ai/ha, visual injury after approx. 10 days, 0 to 100 scale (0 no effect, 100 complete control)
Summary of the method: as §1

[8] = test system: wheat; test: Test A preemergence; assay type: in vivo, Triticum aestivum; conditions: preemergence; for Wheat plant response rating (0 to 100 scale): 125 g ai/ha, visual injury approx. 10 days after treatment; for Wheat plant response rating: 500 g ai/ha, visual injury after approx. 10 days, 0 to 100 scale (0 no effect, 100 complete control)
Summary of the method: as §1

[9] = test system: foxtail, giant; test: Test A preemergence; assay type: in vivo, Setaria faberii; conditions: preemergence; for Foxtail, Giant plant response rating (0 to 100 scale): 125 g ai/ha, visual injury approx. 10 days after treatment; for Foxtail, Giant plant response rating: 500 g ai/ha, visual injury after approx. 10 days, 0 to 100 scale (0 no effect, 100 complete control)
Summary of the method: as §1

[10] = test system: corn; test: Test A preemergence; assay type: in vivo, Zea mays; conditions: preemergence; for Corn plant response rating (0 to 100 scale): 125 g ai/ha, visual injury approx. 10 days after treatment; for Corn plant response rating: 500 g ai/ha, visual injury after approx. 10 days, 0 to 100 scale (0 no effect, 100 complete control)
Summary of the method: as §1

[11] = test system: morningglory; test: Test A postemergence; assay type: in vivo, Ipomoea spp.
Summary of the method: as §1

[12] = test system: sedge, umbrella; test: Test B flood; assay type: in vivo, Cyperus difformis; conditions: 250 g ai/ha, visual rating on 0 to 100 scale (0 no effect, 100 complete control), 13 to 15 days
Summary of the method: as §2

[13] = test system: pigweed; test: Test A postemergence; assay type: in vivo, Amaranthus retroflexus
Summary of the method: as §1

[14] = test system: velvetleaf; test: Test A preemergence; assay type: in vivo, Abutilon theophrasti; conditions: preemergence; for Velvetleaf plant response rating (0 to 100 scale): 125 g ai/ha, visual injury approx. 10 days after treatment; for Velvetleaf plant response rating: 500 g ai/ha, visual injury after approx. 10 days, 0 to 100 scale (0 no effect, 100 complete control)
Summary of the method: as §1

[15] = test system: crabgrass, large; test: Test A preemergence; assay type: in vivo, Digitaria sanguinalis; conditions: preemergence; for Crabgrass, Large plant response rating (0 to 100 scale): 125 g ai/ha, visual injury approx. 10 days after treatment; for Crabgrass, Large plant response rating: 500 g ai/ha, visual injury after approx. 10 days, 0 to 100 scale (0 no effect, 100 complete control)
Summary of the method: as §1

[16] = test system: ducksalad; test: Test B flood; assay type: in vivo, Heteranthera limosa; conditions: 250 g ai/ha, visual rating on 0 to 100 scale (0 no effect, 100 complete control), 13 to 15 days
Summary of the method: as §2

[17] = test system: morningglory; test: Test A preemergence; assay type: in vivo, Ipomoea spp.; conditions: preemergence; for Morningglory plant response rating (0 to 100 scale): 125 g ai/ha, visual injury approx. 10 days after treatment; for Morningglory plant response rating: 500 g ai/ha, visual injury after approx. 10 days, 0 to 100 scale (0 no effect, 100 complete control)
Summary of the method: as §1

[18] = test system: barnyardgrass; test: Test A preemergence; assay type: in vivo, Echinochloa crus-galli; conditions: preemergence
Summary of the method: as §1

[19] = test system: barnyardgrass; test: Test B flood; assay type: in vivo, Echinochloa crus-galli; conditions: 250 g ai/ha, visual rating on 0 to 100 scale (0 no effect, 100 complete control), 13 to 15 days
Summary of the method: as §2

[20] = test system: barnyardgrass; test: Test A postemergence; assay type: in vivo, Echinochloa crus-galli
Summary of the method: as §1

[21] = Postemergence, 500 g ai/ha, 0 to 100 scale (0 no effect, 100 complete control)
[22] = postemergence, 125 g ai/ha, about 10 days, visual rating on 0 to 100 scale (0 no effect, 100 complete control)
[23] = 125 g ai/ha, visual injury, 0 to 100 scale, approx. 10 days
[24] = 500 g ai/ha, visual injury after approx. 10 days, 0 to 100 scale (0 no effect, 100 complete control)

Compound | Wheat plant response rating [1, 21] | Wheat plant response rating [1, 22] | Corn plant response rating [2, 21] | Corn plant response rating [2, 22] | Crabgrass, Large plant response rating [3, 21] | Crabgrass, Large plant response rating [3, 22] | Velvetleaf plant response rating [4, 21] | Velvetleaf plant response rating [4, 22] | Foxtail, Giant plant response rating [5, 21] | Foxtail, Giant plant response rating [5, 22] | Plant response rating, Rice [6] | Pigweed plant response rating (0 to 100 scale) [7] | Pigweed plant response rating [7] | Wheat plant response rating (0 to 100 scale) [8] | Wheat plant response rating [8] | Foxtail, Giant plant response rating (0 to 100 scale) [9] | Foxtail, Giant plant response rating [9] | Corn plant response rating (0 to 100 scale) [10] | Corn plant response rating [10] | Morningglory plant response rating [11, 21] | other results
CCc1cc(-c2ccc(C(F)(F)F)cc2)nn1C(=O)c1ccnc(C(F)(F)F)c1 [Compound 165] | 10 | 0 | 10 | 10 | 20 | 10 | 20 | 10 | 10 | 10 | 0 | 10 | 20 | 0 | 0 | 0 | 0 | 0 | 0 | 20 | Morningglory plant response rating [11, 22]: 10; Plant response rating, Sedge, Umbrella [12]: 0; Pigweed plant response rating [13, 21]: 80; Pigweed plant response rating [13, 22]: 30; Velvetleaf plant response rating (0 to 100 scale) [14]: 0; Velvetleaf plant response rating [14]: 0; Crabgrass, Large plant response rating (0 to 100 scale) [15]: 0; Crabgrass, Large plant response rating [15]: 0; Plant response rating, Ducksalad [16]: 0; Morningglory plant response rating (0 to 100 scale) [17]: 0; Morningglory plant response rating [17]: 0; Barnyardgrass plant response rating [18, 23]: 0; Barnyardgrass plant response rating [18, 24]: 0; Plant response rating, Barnyardgrass [19]: 0; Barnyardgrass plant response rating [20, 21]: 10; Barnyardgrass plant response rating [20, 22]: 10
CCCCNC(=O)c1cc(Cl)n(Cc2cccc(C(F)(F)F)c2)n1 [Compound 171] | 0 | 0 | 20 | 0 | 30 | 10 | 30 | 20 | 20 | 10 | 0 | 0 | 0 | 0 | 0 | 0 | 0 | 0 | 0 | 30 | Morningglory plant response rating [11, 22]: 0; Plant response rating, Sedge, Umbrella [12]: 0; Pigweed plant response rating [13, 21]: 50; Pigweed plant response rating [13, 22]: 20; Velvetleaf plant response rating (0 to 100 scale) [14]: 0; Velvetleaf plant response rating [14]: 0; Crabgrass, Large plant response rating (0 to 100 scale) [15]: 0; Crabgrass, Large plant response rating [15]: 0; Plant response rating, Ducksalad [16]: 0; Morningglory plant response rating (0 to 100 scale) [17]: 0; Morningglory plant response rating [17]: 0; Barnyardgrass plant response rating [18, 23]: 0; Barnyardgrass plant response rating [18, 24]: 0; Plant response rating, Barnyardgrass [19]: 0; Barnyardgrass plant response rating [20, 21]: 20; Barnyardgrass plant response rating [20, 22]: 0
O=C(NC1CC1)c1cc(Cl)n(Cc2cccc(C(F)(F)F)c2)n1 [Compound 174] | 0 | 0 | 10 | 0 | 10 | 0 | 10 | 0 | 0 | 0 | 0 | 20 | 90 | 0 | 0 | 0 | 20 | 0 | 0 | 10 | Morningglory plant response rating [11, 22]: 0; Plant response rating, Sedge, Umbrella [12]: 0; Pigweed plant response rating [13, 21]: 90; Pigweed plant response rating [13, 22]: 20; Velvetleaf plant response rating (0 to 100 scale) [14]: 0; Velvetleaf plant response rating [14]: 0; Crabgrass, Large plant response rating (0 to 100 scale) [15]: 10; Crabgrass, Large plant response rating [15]: 40; Plant response rating, Ducksalad [16]: 0; Morningglory plant response rating (0 to 100 scale) [17]: 0; Morningglory plant response rating [17]: 0; Barnyardgrass plant response rating [18, 23]: 0; Barnyardgrass plant response rating [18, 24]: 0; Plant response rating, Barnyardgrass [19]: 0; Barnyardgrass plant response rating [20, 21]: 10; Barnyardgrass plant response rating [20, 22]: 0
